This assay has as its system T1, Tg_chitinase.
T1 construct: gene TGME49_286465
The experiment in a line: colorimetric p-nitrophenol release at […] nm, non-linear regression. The class given is biochemical, Toxoplasma gondii. As to conditions: substrate 0.01 to 0.1 mM; general assay 0.1 M sodium acetate buffer, 37°C; pH 4.0 and 50°C are the optima listed beside the Km.

The Km is the substrate concentration at which the rate is half of its maximum. For `CC(=O)N[C@H]1[C@H](Oc2ccc([N+](=O)[O-])cc2)O[C@H](CO)[C@@H](O)[C@@H]1O` [pNPGlcNAc], the Km came to 340 µM.

Values taken from article PMC4684212, “Toxoplasma gondii Chitinase Induces Macrophage Activation” (PLoS ONE, 2015).
